Results from patent US20250152552A1, “CANCER-CELL PROLIFERATION INHIBITOR AND CANCER-CELL-PROLIFERATION INHIBITION ENHANCER” (KYUSHU UNIVERSITY, NATIONAL UNIVERSITY CORPORATION, priority 2022, published 2025).

How the values were obtained:
[1] = mouse, oral administration; Biol. Pharm. Bull, 42, 212-221, 2019; cited from earlier work
[2] = tested on: MC38 mouse colon cancer cell line; test: Administration of EGC-M5 alone, subcutaneous MC38 tumor growth in mice (Comparative Example); assay type: in vivo; settings: 16 days after transplantation; EGC-M5 5, 10, 20 and 30 mg/kg b.w. i.p. daily; vs control group, Tukey test
Procedure: After preparatory rearing, MC38 mouse colon cancer cell line was transplanted subcutaneously into the 6-weeks-old male C57BL/6 mice at an amount of 5.0×10^5 cells/mouse. Each group had 8 mice. EGC-M5 was dissolved in the PBS buffer containing 10% DMSO. 200 μL of EGC-M5 solution at a dose of 5 mg, 10 mg, 20 mg, and 30 mg/kg b.w. was intraperitoneally administered to the mice daily starting on day 4 after transplantation. The tumor volume was measured with the vernier calipers, and the growth of the tumor was evaluated with time.
Regarding to the mean (Mean) and the standard error (S.E.) of the tumor volume (natural logarithm) 16 days after transplantation, the significant difference between the control group (Control group) and the EGC-M5 administration group was assessed by Tukey's Multiple Comparison test.

O=C1CC[C@H](Cc2cc(O)cc(O)c2)O1 [EGC-M5, (R)-5-(3,5-dihydroxyphenyl)-γ-valerolactone]
conjugates detected in serum [1]: the sulfate conjugate and the glucuronic acid conjugate of the compound of 5-(3,5-dihydroxyphenyl)-γ-valerolactone are detected in the serum
tumor volume (natural logarithm) [2]: no significant differences were observed in the tumor volume values
